The record followed here is patent US8541381B2, “Process for producing enriched fractions containing up to 100% of bacopasaponins from the plant materials of bacopa species” (Laila Impex, priority 2005, dated 2013).

As for `CC(C)=CC1C[C@@](C)(O[C@@H]2OC[C@H](O)C(O)C2O)C2C3CCC4[C@@]5(C)CC[C@H](O[C@@H]6OC[C@H](O)C(O[C@@H]7OC(CO)[C@@H](O)C(O)C7O)C6O[C@@H]6O[C@@H](CO)C(O)C6O)C(C)(C)C5CC[C@@]4(C)[C@@]34CO[C@@]2(C4)O1` (stereo partly drawn), the melting point (in general, the temperature, or range, at which the solid turns liquid) was in the range of 248 to 256 °C.
As for `CC(C)=CC1C[C@@](C)(O[C@@H]2OC[C@H](O)C(O)C2O)C2C3CCC4[C@@]5(C)CC[C@H](O[C@@H]6OC(CO)[C@@H](O)C(O[C@@H]7OC(CO)[C@@H](O)C(O)C7O)C6O[C@@H]6O[C@@H](CO)C(O)C6O)C(C)(C)C5CC[C@@]4(C)[C@@]34CO[C@@]2(C4)O1` (stereo partly drawn), the figure is 246 to 258 °C; as for `CC(C)=C[C@H]1CO[C@]23C[C@]4(CO2)C(CCC2[C@@]5(C)CC[C@H](O[C@@H]6OC(CO)[C@@H](O)C(O[C@@H]7OC(CO)[C@@H](O)C(O)C7O)C6O)C(C)(C)C5CC[C@]24C)C3[C@]1(C)O` (stereo partly drawn), 278 to 282 °C.
